Measurements from US11000033B2, “Ketone or oxime compound, and herbicide” (NISSAN CHEMICAL CORPORATION, priority 2014, dated 2021).

Experiments:
Format in all cases: in vivo
soybean [1] = experiment: Test Example 4: effect on crop by soil treatment (symbol d); settings: for d: soybean, effect grade on crop: 320 g/ha
How it was run: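 Diluvial soil (sterilized) in boxes; seeds placed spot-wise alongside weed species; ~1.5 cm covering soil. Greenhouse, 25–30° C.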

Cyperus difformis = experiment: Test Example 3: herbicidal effect by foliage application, Wagner pot (symbol E); settings: application herbicide amount 320 g/ha
How it was run: (§1)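 Post-emergence, paddy-type test: seedlings 14 d old in shallow-flooded (0.1–0.5 cm) alluvial soil, 25–30 °C greenhouse. Emulsion diluted to target rate, sprayed on leaves. Read-out: visual effect on each species at 3 weeks, per set criteria.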

Apera spica-venti [2] = experiment: Test Example 4: herbicidal effect by soil treatment (symbol L)
How it was run: (§2)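 Seeds were sown in sterilized diluvial soil, covered with about 1.5 cm of soil, and the soil surface was sprayed with a water-diluted emulsion of the compound at a predetermined rate. Plants grew in a greenhouse at 25° C. to 30° C.; effects were scored visually 3 weeks after application.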

Abutilon theophrasti = experiment: Test Example 5: herbicidal effect by foliage application, plastic box (symbol M); settings: 320 g/ha, 3 weeks after application
How it was run: (§3)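 Emulsion formulation, diluted with water to the intended rate, was applied uniformly to leaves by small sprayer. Recipients were 14-day greenhouse-grown seedlings (25° C. to 30° C.). Assessment followed at 3 weeks.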

Veronica persica = experiment: Test Example 4: herbicidal effect by soil treatment (symbol R)
How it was run: as §2

Apera spica-venti [3] = experiment: Test Example 5: herbicidal effect by foliage application, plastic box (symbol L); settings: 320 g/ha, 3 weeks after application
How it was run: as §3

Alopecurus myosuroides = experiment: Test Example 4: herbicidal effect by soil treatment (symbol J)
How it was run: as §2

[4] = test system: Echinochloa crus-galli var. crus-galli; experiment: Test Example 3: herbicidal effect by foliage application, Wagner pot (symbol H); settings: application herbicide amount 320 g/ha
How it was run: as §1

Setaria viridis = experiment: Test Example 5: herbicidal effect by foliage application, plastic box (symbol G); settings: 320 g/ha, 3 weeks after application
How it was run: as §3

soybean [5] = experiment: Test Example 5: effect on crop by foliage application, plastic box (symbol d); settings: 320 g/ha, 3 weeks after application
How it was run: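 Box culture: sterile diluvial soil, seeds spot-sown, ~1.5 cm cover, raised under glass at 25–30° C.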

[6] = test system: Echinochloa crus-galli var. crus-galli; experiment: Test Example 5: herbicidal effect by foliage application, plastic box (symbol H); settings: 320 g/ha, 3 weeks after application
How it was run: as §3

Stellaria media = experiment: Test Example 4: herbicidal effect by soil treatment (symbol P)
How it was run: as §2

transplanted rice plant = experiment: Test Example 1: effect on crop, application before weed generation in submerged conditions (symbol a); settings: application herbicide amount 320 g/ha
How it was run: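 Rice at 2.5 leaf stage transplanted into submerged soil (4 cm depth) sown with three weed species; herbicide applied before weed emergence.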

Amaranthus retroflexus = experiment: Test Example 4: herbicidal effect by soil treatment (symbol N)
How it was run: as §2

Leptochloa chinensis = experiment: Test Example 3: herbicidal effect by foliage application, Wagner pot (symbol D); settings: application herbicide amount 320 g/ha
How it was run: as §1

[7] = application herbicide amount 320 g/ha

SMILES | M: Abutilon theophrasti, herbicidal effect grade (Abutilon theophrasti) | L: Apera spica-venti, herbicidal effect grade (Apera spica-venti [3]) | G: Setaria viridis, herbicidal effect grade (Setaria viridis) | d: soybean, effect on crop grade (soybean [5]) | H: Echinochloa crus-galli var. crus-galli, herbicidal effect grade [6] | d: soybean, effect grade on crop (soybean [1]) | herbicidal effect on E, grade 0-5 (Cyperus difformis) | L: Apera spica-venti, herbicidal effect grade (Apera spica-venti [2]; 320 g/ha) | M: Abutilon theophrasti, herbicidal effect (criteria 0-5) (Abutilon theophrasti) | R: Veronica persica, herbicidal effect grade (Veronica persica; 320 g/ha) | L: Apera spica-venti, herbicidal effect (criteria 0-5) (Apera spica-venti [3]) | J: Alopecurus myosuroides, herbicidal effect grade (Alopecurus myosuroides; 320 g/ha) | herbicidal effect on H (Echinochloa crus-galli var. crus-galli), grade 0-5 [4] | G: Setaria viridis, herbicidal effect (criteria 0-5) (Setaria viridis) | d: soybean, effect on crop (criteria 0-5) (soybean [5]) | H: Echinochloa crus-galli var. crus-galli, herbicidal effect (criteria 0-5) [6] | P: Stellaria media, herbicidal effect grade (Stellaria media; 320 g/ha) | Effect grade on crop, a: transplanted rice plant (transplanted rice plant) | N: Amaranthus retroflexus, herbicidal effect grade (Amaranthus retroflexus; 320 g/ha) | herbicidal effect on D (Leptochloa chinensis), grade 0-5 (Leptochloa chinensis) | further results
CCC(CC1CC(O)=C(c2c(C)cc(-c3ccccc3)cc2OC)C1=O)=NOC (mixture of isomers) [13-004] | 1 (Herbicidal ratio of 5% or higher and lower than 20%) | 5 (Herbicidal ratio of 90% or more (almost completely withered)) | 5 (Herbicidal ratio of 90% or more (almost completely withered)) | 1 (Herbicidal ratio of 5% or higher and lower than 20%) | 5 (Herbicidal ratio of 90% or more (almost completely withered)) |  |  |  |  |  |  |  |  |  |  |  |  |  |  |  | d: soybean, effect on crop grade (soybean [1]; [7]): 1 (Herbicidal ratio of 5% or higher and lower than 20%); E herbicidal effect grade (Cyperus difformis; Table 24): 5 (Herbicidal ratio of 90% or more (almost completely withered)); L: Apera spica-venti, herbicidal effect grade (Apera spica-venti [2]; [7]): 5 (Herbicidal ratio of 90% or more (almost completely withered)); R: Veronica persica, herbicidal effect grade (Veronica persica; [7]): 3 (Herbicidal ratio of 40% or higher and lower than 70%); J: Alopecurus myosuroides, herbicidal effect grade (Alopecurus myosuroides; [7]): 5 (Herbicidal ratio of 90% or more (almost completely withered)); H (Echinochloa crus-galli var. crus-galli) herbicidal effect grade ([4]; Table 24): 5 (Herbicidal ratio of 90% or more (almost completely withered)); P: Stellaria media, herbicidal effect grade (Stellaria media; [7]): 1 (Herbicidal ratio of 5% or higher and lower than 20%); a (transplanted rice plant) effect on crop grade (transplanted rice plant): 5 (Herbicidal ratio of 90% or more (almost completely withered)); N: Amaranthus retroflexus, herbicidal effect grade (Amaranthus retroflexus; [7]): 4 (Herbicidal ratio of 70% or higher and lower than 90%); D (Leptochloa chinensis) herbicidal effect grade (Leptochloa chinensis; Table 24): 5 (Herbicidal ratio of 90% or more (almost completely withered))
C=C(C)CN(CC)C(=O)OC1=C(c2c(C)cc(C)cc2C)C(=O)C(CC(C)=NOC)C1 (stereo not drawn) [1-130] |  |  |  |  |  | 0 (Herbicidal ratio of 5% or lower (almost no effect)) | 4 (Herbicidal ratio of 70% or higher and lower than 90%) | 3 (Herbicidal ratio of 40% or higher and lower than 70%) | 0 (Herbicidal ratio of 5% or lower (almost no effect)) | 0 (Herbicidal ratio of 5% or lower (almost no effect)) | 5 (Herbicidal ratio of 90% or more (almost completely withered)) | 3 (Herbicidal ratio of 40% or higher and lower than 70%) | 4 (Herbicidal ratio of 70% or higher and lower than 90%) | 5 (Herbicidal ratio of 90% or more (almost completely withered)) | 1 (Herbicidal ratio of 5% or higher and lower than 20%) | 5 (Herbicidal ratio of 90% or more (almost completely withered)) | 0 (Herbicidal ratio of 5% or lower (almost no effect)) | 3 (Herbicidal ratio of 40% or higher and lower than 70%) | 0 (Herbicidal ratio of 5% or lower (almost no effect)) | 5 (Herbicidal ratio of 90% or more (almost completely withered)) | 
CC(CC1CC(O)=C(c2c(C)cc(C)cc2C)C1=O)=NOC1CCCC1 (stereo not drawn) [1-106] |  |  |  |  |  | 0 (Herbicidal ratio of 5% or lower (almost no effect)) | 5 (Herbicidal ratio of 90% or more (almost completely withered)) | 5 (Herbicidal ratio of 90% or more (almost completely withered)) | 1 (Herbicidal ratio of 5% or higher and lower than 20%) | 0 (Herbicidal ratio of 5% or lower (almost no effect)) | 5 (Herbicidal ratio of 90% or more (almost completely withered)) | 5 (Herbicidal ratio of 90% or more (almost completely withered)) | 5 (Herbicidal ratio of 90% or more (almost completely withered)) | 5 (Herbicidal ratio of 90% or more (almost completely withered)) | 0 (Herbicidal ratio of 5% or lower (almost no effect)) | 5 (Herbicidal ratio of 90% or more (almost completely withered)) | 0 (Herbicidal ratio of 5% or lower (almost no effect)) | 5 (Herbicidal ratio of 90% or more (almost completely withered)) | 0 (Herbicidal ratio of 5% or lower (almost no effect)) | 5 (Herbicidal ratio of 90% or more (almost completely withered)) | 
CON=C(C)CC1CC(OC(=O)c2cnoc2C2CC2)=C(c2c(C)cc(C)cc2C)C1=O (stereo not drawn) [1-103] |  |  |  |  |  | 1 (Herbicidal ratio of 5% or higher and lower than 20%) | 5 (Herbicidal ratio of 90% or more (almost completely withered)) | 4 (Herbicidal ratio of 70% or higher and lower than 90%) | 4 (Herbicidal ratio of 70% or higher and lower than 90%) | 0 (Herbicidal ratio of 5% or lower (almost no effect)) | 5 (Herbicidal ratio of 90% or more (almost completely withered)) | 5 (Herbicidal ratio of 90% or more (almost completely withered)) | 5 (Herbicidal ratio of 90% or more (almost completely withered)) | 5 (Herbicidal ratio of 90% or more (almost completely withered)) | 3 (Herbicidal ratio of 40% or higher and lower than 70%) | 5 (Herbicidal ratio of 90% or more (almost completely withered)) | 0 (Herbicidal ratio of 5% or lower (almost no effect)) | 5 (Herbicidal ratio of 90% or more (almost completely withered)) | 5 (Herbicidal ratio of 90% or more (almost completely withered)) | 5 (Herbicidal ratio of 90% or more (almost completely withered)) | 
CON=C(C)CC1CC(OS(C)(=O)=O)=C(c2c(C)cc(C)cc2C)C1=O (stereo not drawn) [1-006] | 4 (Herbicidal ratio of 70% or higher and lower than 90%) | 5 (Herbicidal ratio of 90% or more (almost completely withered)) | 5 (Herbicidal ratio of 90% or more (almost completely withered)) | 4 (Herbicidal ratio of 70% or higher and lower than 90%) | 5 (Herbicidal ratio of 90% or more (almost completely withered)) |  | 5 (Herbicidal ratio of 90% or more (almost completely withered)) |  |  |  |  |  | 5 (Herbicidal ratio of 90% or more (almost completely withered)) |  |  |  |  | 4 (Herbicidal ratio of 70% or higher and lower than 90%) |  | 5 (Herbicidal ratio of 90% or more (almost completely withered)) | d (soybean) effect on crop grade (soybean [1]; [7]): 0 (Herbicidal ratio of 5% or lower (almost no effect)); L (Apera spica-venti) herbicidal effect grade (Apera spica-venti [2]; [7]): 5 (Herbicidal ratio of 90% or more (almost completely withered)); R (Veronica persica) herbicidal effect grade (Veronica persica; [7]): 0 (Herbicidal ratio of 5% or lower (almost no effect)); J (Alopecurus myosuroides) herbicidal effect grade (Alopecurus myosuroides; [7]): 4 (Herbicidal ratio of 70% or higher and lower than 90%); P (Stellaria media) herbicidal effect grade (Stellaria media; [7]): 0 (Herbicidal ratio of 5% or lower (almost no effect)); N (Amaranthus retroflexus) herbicidal effect grade (Amaranthus retroflexus; [7]): 4 (Herbicidal ratio of 70% or higher and lower than 90%)
